The assay concerns the target FXR (Homo sapiens (Human), UniProt Q96RI1). The assay is described as follows: FXR EC50 (FXR agonist activity reported with each example). The class given is cell-based.
FXR, sequence (Q96RI1 262-486): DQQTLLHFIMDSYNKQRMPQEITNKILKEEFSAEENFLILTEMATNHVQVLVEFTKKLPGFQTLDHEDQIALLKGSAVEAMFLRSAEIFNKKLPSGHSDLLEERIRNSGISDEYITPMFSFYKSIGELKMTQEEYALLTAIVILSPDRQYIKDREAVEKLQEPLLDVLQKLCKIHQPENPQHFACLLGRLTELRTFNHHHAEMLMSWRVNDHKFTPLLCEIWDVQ
The compound `NC(=O)c1cnc(OCC23CCC(OCc4c(-c5c(Cl)cncc5Cl)noc4C4CC4)(CC2)CC3)c(C(F)(F)F)c1` [Example 278, 6-((4-((5-cyclopropyl-3-(3,5-dichloropyridin-4-yl)isoxazol-4-yl)methoxy)bicyclo[2.2.2]octan-1-yl)methoxy)-5-(trifluoromethyl)nicotinamide] had an EC50 of 620 nM.
As for `CN(C)c1cc(-c2noc(C34CCC(OCc5c(-c6c(Cl)cncc6Cl)noc5C5CC5)(CC3)CC4)n2)cc(C(=O)O)n1` [Example 262, 4-(5-(4-((5-cyclopropyl-3-(3,5-dichloropyridin-4-yl)isoxazol-4-yl)methoxy)bicyclo[2.2.2]octan-1-yl)-1,2,4-oxadiazol-3-yl)-6-(dimethylamino)picolinic acid], the EC50 was 53 nM.
`O=C(O)c1cc2ccc(OCC34CCC(OCc5c(-c6c(Cl)cncc6Cl)noc5C5CC5)(CC3)CC4)cc2cn1` [Example 287] showed an EC50 of 96 nM.
The compound `O=C(O)c1cccc(OCC23CCC(COCc4c(-c5c(Cl)cccc5Cl)noc4C4CC4)(CC2)CC3)c1` [Example 484, 3-((4-(((5-cyclopropyl-3-(2,6-dichlorophenyl)isoxazol-4-yl)methoxy)methyl)bicyclo[2.2.2]octan-1-yl)methoxy)benzoic acid] had an EC50 of 200 nM.
With `CCOc1cc(C(=O)O)nc2c(F)cc(OCC34CCC(OCc5c(-c6c(Cl)cncc6Cl)noc5C5CC5)(CC3)CC4)cc12` [Example 306, 6-((4-((5-cyclopropyl-3-(3,5-dichloropyridin-4-yl)isoxazol-4-yl)methoxy)bicyclo[2.2.2]octan-1-yl)methoxy)-4-ethoxy-8-fluoroquinoline-2-carboxylic acid], the EC50 amounted to 11 nM.
Then `CC(Oc1ccc(OCC23CCC(OCc4c(-c5c(Cl)cncc5Cl)noc4C4CC4)(CC2)CC3)cc1)C(=O)O` (stereo not shown) [Example 341], with 1500 nM; and `O=C(O)c1ccnc(OCC23CCC(OCc4c(-c5c(Cl)cccc5Cl)noc4C4CC4)(CC2)CC3)n1` [Example 108, 2-((4-((5-cyclopropyl-3-(2,6-dichlorophenyl)isoxazol-4-yl)methoxy)bicyclo[2.2.2]octan-1-yl)methoxy)pyrimidine-4-carboxylic acid], with 540 nM; and `O=C(O)c1ccc(NC(=O)C23CCC(COCc4c(-c5c(Cl)cccc5Cl)noc4C4CC4)(CC2)CC3)c(Cl)c1` [Example 170, 3-chloro-4-(4-(((5-cyclopropyl-3-(2,6-dichlorophenyl)isoxazol-4-yl)methoxy)methyl)bicyclo[2.2.2]octane-1-carboxamido)benzoic acid], with 636 nM.
`O=C(O)c1ccc2nc(OCC34CCC(C=Cc5c(-c6c(Cl)cccc6Cl)noc5C5CC5)(CC3)CC4)sc2c1` [Example 192] came in with an EC50 of 7.2 nM.
Then `O=C(O)c1cc(-c2noc(C34CCC(OCc5c(-c6c(Cl)cccc6Cl)noc5C5CC5)(CC3)CC4)n2)ccn1` [Example 14, 4-(5-(4-((5-cyclopropyl-3-(2,6-dichlorophenyl)isoxazol-4-yl)methoxy)bicyclo[2.2.2]octan-1-yl)-1,2,4-oxadiazol-3-yl)picolinic acid], with 130 nM.
`O=C(O)c1ccn2c(C#CC34CCC(OCc5c(-c6c(Cl)cncc6Cl)noc5C5CC5)(CC3)CC4)cnc2c1` [Example 393] showed a concentration giving a half-maximal response (EC50) of 270 nM.
For the compound `O=C(O)c1cc(-c2noc(C34CCC(OCc5c(-c6c(Cl)cccc6Cl)noc5C5CC5)(CC3)CC4)n2)ccc1F` [Example 64, 5-(5-(4-((5-Cyclopropyl-3-(2,6-dichlorophenyl)isoxazol-4-yl)methoxy)bicyclo[2.2.2]octan-1-yl)-1,2,4-oxadiazol-3-yl)-2-fluorobenzoic acid], the EC50 was found to be 140 nM.
`O=C(O)c1ccc(-c2noc(C34CCC(COCc5c(-c6ccccc6OC(F)(F)F)noc5C5CC5)(CC3)CO4)n2)cc1` [Example 209, 4-(5-(4-(((5-cyclopropyl-3-(2-(trifluoromethoxy)phenyl)isoxazol-4-yl)methoxy)methyl)-2-oxabicyclo[2.2.2]octan-1-yl)-1,2,4-oxadiazol-3-yl)benzoic acid] had an EC50 of 470 nM.
Regarding `O=C(O)c1ccc(-c2noc(C34CCC(C=Cc5c(-c6c(Cl)cccc6Cl)noc5C5CC5)(CC3)C4)n2)cc1` [Example 226, 4-(5-(4-(2-(5-cyclopropyl-3-(2,6-dichlorophenyl)isoxazol-4-yl)vinyl)bicyclo[2.2.1]heptan-1-yl)-1,2,4-oxadiazol-3-yl)benzoic acid], the response was half-maximal at 420 nM (EC50).
Take `CC(C)Oc1cc(C#CC23CCC(OCc4c(-c5c(Cl)cncc5Cl)noc4C4CC4)(CC2)CC3)cc(C(=O)O)c1` [Example 400]: the EC50 was 29 nM.
The result for `O=C(O)c1cc(OCC23CCC(/C=C/c4c(-c5c(Cl)cncc5Cl)noc4C4CC4)(CC2)CO3)cc(C(F)(F)F)c1` [Example 468, (E)-3-((4-(2-(5-cyclopropyl-3-(3,5-dichloropyridin-4-yl)isoxazol-4-yl)vinyl)-2-oxabicyclo[2.2.2]octan-1-yl)methoxy)-5-(trifluoromethyl)benzoic acid] reads 70 nM; that for `O=C(O)c1cc(C(F)(F)F)c2nc(C34CCC(OCc5c(-c6c(Cl)cncc6Cl)noc5C5CC5)(CC3)CC4)ccc2c1` [Example 370], 56 nM; that for `O=C(O)c1ncc(OCC23CCC(OCc4c(-c5c(Cl)cncc5Cl)noc4C4CC4)(CC2)CC3)cc1C(F)(F)F` [Example 285, 5-((4-((5-cyclopropyl-3-(3,5-dichloropyridin-4-yl)isoxazol-4-yl)methoxy)bicyclo[2.2.2]octan-1-yl)methoxy)-3-(trifluoromethyl)picolinic acid], 130 nM.
Compound `COc1ccc(-c2noc(C34CCC(OCc5c(-c6c(Cl)cncc6Cl)noc5C5CC5)(CC3)CC4)n2)c(F)c1C(=O)O` [Example 250, 3-(5-(4-((5-cyclopropyl-3-(3,5-dichloropyridin-4-yl)isoxazol-4-yl)methoxy)bicyclo[2.2.2]octan-1-yl)-1,2,4-oxadiazol-3-yl)-2-fluoro-6-methoxybenzoic acid] registered a half-maximal effective concentration (EC50) of 730 nM.
For `O=C(O)c1cc(OC(F)F)c2cc(OCC34CCC(/C=C/c5c(-c6c(Cl)cncc6Cl)noc5C5CC5)(CC3)CC4)ccc2n1` [Example 451, (E)-6-((4-(2-(5-cyclopropyl-3-(3,5-dichloropyridin-4-yl)isoxazol-4-yl)vinyl)bicyclo[2.2.2]octan-1-yl)methoxy)-4-(difluoromethoxy)quinoline-2-carboxylic acid], it took 35 nM to reach a half-maximal effect (EC50).
In turn, `O=C(O)c1ccc(C2CC2)c2nc(C34CCC(OCc5c(C(C6CC6)C6CC6)noc5C5CC5)(CC3)CC4)ccc12` [Example 424] returned an EC50 of 500 nM.
`O=C(O)c1cccc2nc(C34CCC(C=Cc5c(-c6c(Cl)cccc6Cl)noc5C5CC5)(CC3)CC4)sc12` [Example 189] registered an EC50 of 63 nM.
Compound `O=C(O)c1cnc(OCC23CCC(OCc4c(-c5c(Cl)cncc5Cl)noc4C4CC4)(CC2)CC3)c(C(F)(F)F)c1` [Example 279, 6-((4-((5-cyclopropyl-3-(3,5-dichloropyridin-4-yl)isoxazol-4-yl)methoxy)bicyclo[2.2.2]octan-1-yl)methoxy)-5-(trifluoromethyl)nicotinic acid] had an EC50 of 190 nM.
In turn, `Cn1cc(C(=O)O)c2ccc(C#CC34CCC(OCc5c(-c6c(Cl)cncc6Cl)noc5C5CC5)(CC3)CC4)nc21` [Example 363] yielded an EC50 of 260 nM.
`O=C(O)c1ccc(-c2noc(C34CCC(COCc5c(-c6ccccc6OC(F)(F)F)noc5C5CC5)(CC3)CC4)n2)cc1` [Example 154] gave an EC50 of 960 nM.
Then `O=C(O)c1cccc(-c2noc(C34CCC(CNc5c(-c6c(Cl)cccc6Cl)noc5C5CC5)(CC3)CC4)n2)c1` [Example 166, 3-(5-(4-(((5-cyclopropyl-3-(2,6-dichlorophenyl)isoxazol-4-yl)amino)methyl)bicyclo[2.2.2]octan-1-yl)-1,2,4-oxadiazol-3-yl)benzoic acid], with 580 nM; and `Cc1cc(C(=O)O)nc2ccc(OCC34CCC(OCc5c(-c6c(Cl)cncc6Cl)noc5C5CC5)(CC3)CC4)cc12` [Example 325], with 52 nM.
With `O=C(O)c1cc(OC(F)F)c2cc(OCC34CCC(OCc5c(-c6c(Cl)cncc6Cl)noc5C5CC5)(CC3)CC4)ccc2n1` [Example 284, 6-((4-((5-cyclopropyl-3-(3,5-dichloropyridin-4-yl)isoxazol-4-yl)methoxy)bicyclo[2.2.2]octan-1-yl)methoxy)-4-(difluoromethoxy)quinoline-2-carboxylic acid], a half-maximal response (EC50) required 8 nM.
Then `O=C(O)c1cccc(OCC23CCC(OCc4c(-c5c(Cl)cccc5Cl)noc4C4CC4)(CC2)CC3)n1` [Example 110, 6-((4-((5-cyclopropyl-3-(2,6-dichlorophenyl)isoxazol-4-yl)methoxy)bicyclo[2.2.2]octan-1-yl)methoxy)picolinic acid], with 52 nM.
`O=C(O)c1cc(OC2CCC2)c2cc(OCC34CCC(OCc5c(-c6c(Cl)cncc6Cl)noc5C5CC5)(CC3)CC4)cc(F)c2n1` [Example 308, 4-cyclobutoxy-6-((4-((5-cyclopropyl-3-(3,5-dichloropyridin-4-yl)isoxazol-4-yl)methoxy)bicyclo[2.2.2]octan-1-yl)methoxy)-8-fluoroquinoline-2-carboxylic acid] displayed an EC50 of 12 nM.
The result for `CS(=O)(=O)NC(=O)c1cccc(C23CCC(COCc4c(-c5c(Cl)cccc5Cl)noc4C4CC4)(CC2)CO3)c1` [Example 215] reads 1600 nM.
The compound `O=C(O)c1ccc2nc(C34CCC(OCc5c(-c6ccccc6C(F)(F)F)noc5C5CC5)(CC3)CC4)sc2c1` [Example 6, 2-(4-((5-cyclopropyl-3-(2-(trifluoromethyl)phenyl)isoxazol-4-yl)methoxy)bicyclo[2.2.2]octan-1-yl)benzo[d]thiazole-6-carboxylic acid] registered an EC50 of 4200 nM.
The compound `O=C(O)c1cccc(-c2noc(C34CCC(OCc5c(-c6ccccc6OC(F)(F)F)noc5C5CC5)(CC3)CO4)n2)c1` [Example 199] displayed an EC50 of 220 nM.
As to `NC(=O)c1cc(C(F)(F)F)cc2nc(C34CCC(OCc5c(-c6c(Cl)cncc6Cl)noc5C5CC5)(CC3)CC4)sc12` [Example 435, 2-(4-((5-cyclopropyl-3-(3,5-dichloropyridin-4-yl)isoxazol-4-yl)methoxy)bicyclo[2.2.2]octan-1-yl)-5-(trifluoromethyl)benzo[d]thiazole-7-carboxamide], the concentration for a half-maximal effect (EC50) is 460 nM.

Usually EC50 stands for the concentration needed to bring the measured effect to its halfway point.

Values taken from patent US10730863B2, “Bridged bicyclic compounds as farnesoid X receptor modulators” (BRISTOL-MYERS SQUIBB COMPANY, priority 2017, dated 2020).
